Laboratory results reported in US4645776A, “N-(dichlorofluoromethylthio)-3,4-dimethylmaleimide and its use as a fungicide” (Bayer Aktiengesellschaft, priority 1984, dated 1987).
In brackets after ≈: the same amount, converted by molar mass.

Key:
[1] = test system: Alternaria tenuis; test: MIC on agar, Alternaria tenuis; assay type: cell-based; conditions: Alternaria alternata, 336 h, beerwort/peptone agar, 28° C., 2 weeks
Method: (§1) N-(Dichlorofluoromethylthio)-3,4-dimethylmaleimide is added in concentrations of 0.1 mg/l to 5,000 mg/l to an agar prepared from beerwort and peptone. After storage at 28° C. and 60 to 70% relative atmospheric humidity for 2 weeks, the MIC is determined. The MIC is the lowest concentration of active compound at which no growth at all of the species of microbe used takes place, and is given in the following table.

[2] = test system: Coniophora puteana; test: MIC on agar, Coniophora puteana; assay type: cell-based; conditions: 336 h, beerwort/peptone agar, 28° C., 2 weeks
Method: as §1

[3] = test system: Aspergillus niger, Aureobasidium pullulans, Alternaria tenuis, Penicillim citrinum, Stachybotrys atra, Paecilamyces varioti, Cladosporium herbarum, Aspergillus …; test: Test as a paint fungicide (mould-resistance of paint films, Report 219 of the Defense Standards Laboratories); conditions: alkyd resin lacquer paint containing 0.8% of compound based on weight of film; also after ageing (running water 24° C. 24 h, fresh air 40° to 60° C. 8 days, dry Xenon test 110 h); evaluated after 3 weeks at 28° to 30° C.
Method: The testing is carried out in accordance with the method in Report 219 of the Defense Standards Laboratories Maribyrnong/Australia, as follows: A smooth card is coated on both sides with the paint to be tested and dried at room temperature for 8 days. For ageing, part of the paint film is kept in running water of 24° C. for 24 hours, or aerated with fresh air of 40° to 60° C. for 8 days, or subjected to a dry Xenon test for 110 hours. 5×5 cm sections of the samples thus prepared are placed individually on a glucose nutrient medium in Petri dishes and contaminated with a spore suspension of the following fungi: Aspergillus niger, Aureobasidium pullulans, Alternaria tenuis, Penicillim citrinum, Stachybotrys atra, Paecilamyces varioti, Cladosporium herbarum, Aspergillus ustus and Aspergillus flavus.
The contaminated dishes are kept at 28° to 30° C. and 90 to 95% relative atmospheric humidity, and are evaluated after 3 weeks. Paint films are regarded as mould-resistant if the samples remain free from fungi after these tests.
A commercially available lacquer paint based on alkyd resin is tested for mould-resistance by the above-mentioned test method.

[4] = test system: slime organisms; test: Action against slime organisms; assay type: cell-based; conditions: 504 h; slime organisms (about 10^6 germs/ml), Allens nutrient solution, room temperature, 3 weeks
Method: N-(Dichlorofluoromethylthio)-3,4-dimethylmaleimide (dissolved in a little acetone) is used in concentrations of in each case 0.1 to 100 mg/l in Allens nutrient solution (Arch. Mikrobiol. 17, 34 to 53 (1952)), which contains, in 4 l of sterile water, 0.2 g of ammonium chloride, 4.0 g of sodium nitrate, 1.0 g of dipotassium hydrogen phosphate, 0.2 g of calcium chloride, 2.05 g of magnesium sulphate, 0.02 g of iron chloride and 1% of caprolactam. Shortly beforehand, the nutrient solutions are infected with slime organisms (about 10^6 germs/ml) which have been isolated from spinning water circulations used in the production of polyamide. Nutrient solutions which contain the minimum inhibitory concentration (MIC) or higher concentrations of active compound are still completely clear after culture at room temperature for 3 weeks, that is to say the marked increase in microbes and slime formation noticeable after 3 to 4 days in nutrient solutions containing no active compound are absent.

[5] = test system: Penicillium glaucum; test: MIC on agar, Penicillium glaucum; assay type: cell-based; conditions: 336 h, beerwort/peptone agar, 28° C., 2 weeks
Method: as §1

[6] = test system: Chaetomium globosum; test: MIC on agar, Chaetomium globosum; assay type: cell-based; conditions: 336 h, beerwort/peptone agar, 28° C., 2 weeks
Method: as §1

[7] = test system: Polyporus versicolor; test: MIC on agar, Polyporus versicolor; assay type: cell-based; conditions: Trametes versicolor, 336 h, beerwort/peptone agar, 28° C., 2 weeks
Method: as §1

[8] = test system: Lentinus tigrinus; test: MIC on agar, Lentinus tigrinus; assay type: cell-based; conditions: 336 h, beerwort/peptone agar, 28° C., 2 weeks
Method: as §1

[9] = test system: Aureobasidium pullulans; test: MIC on agar, Aureobasidium pullulans; assay type: cell-based; conditions: 336 h, beerwort/peptone agar, 28° C., 2 weeks
Method: as §1

[10] = test system: Sclerophoma pityophila; test: MIC on agar, Sclerophoma pityophila; assay type: cell-based; conditions: Sydowia polyspora, 336 h, beerwort/peptone agar, 28° C., 2 weeks
Method: as §1

[11] = test system: Aspergillus niger; test: MIC on agar, Aspergillus niger; assay type: cell-based; conditions: 336 h, beerwort/peptone agar, 28° C., 2 weeks
Method: as §1

[12] = test system: Trichoderma viride; test: MIC on agar, Trichoderma viride; assay type: cell-based; conditions: 336 h, beerwort/peptone agar, 28° C., 2 weeks
Method: as §1

For CC1=C(C)C(=O)N(SC(F)(Cl)Cl)C1=O [N-(dichlorofluoromethylthio)-3,4-dimethylmaleimide], the MIC [1] was 0.75 µg/mL (≈ 2.91 µM), the MIC [2] was 0.75 µg/mL (≈ 2.91 µM) and the “mould-resistance of paint films” value [3] was “mould-resistant”. It also gave an MIC [4] of 7.5 µg/mL (≈ 29.1 µM), an MIC [5] of 5 µg/mL (≈ 19.4 µM) and an MIC [6] of 50 µg/mL (≈ 194 µM). For the same compound, the MIC [7] was 7.5 µg/mL (≈ 29.1 µM), the MIC [8] was 1.5 µg/mL (≈ 5.81 µM) and the MIC [9] was 0.5 µg/mL (≈ 1.94 µM). The MIC [10] was 1 µg/mL (≈ 3.87 µM), the MIC [11] was 50 µg/mL (≈ 194 µM) and the MIC [12] was 100 µg/mL (≈ 387 µM).
